# Laboratory results from ChEMBL document CHEMBL1130150, “Conformationally restricted analogues of trimethoprim: 2,6-diamino-8-substituted purines as potential dihydrofolate reductase inhibitors from Pneumocystis carinii and Toxoplasma gondii” (J Med Chem, 1997).
# Experiments:
# [1] = target: T1, Bifunctional dihydrofolate reductase-thymidylate synthase (Toxoplasma gondii, UniProt Q07422); test: Inhibition of Toxoplasma gondii dihydrofolate reductase
# T1 sequence (Q07422 whole entry): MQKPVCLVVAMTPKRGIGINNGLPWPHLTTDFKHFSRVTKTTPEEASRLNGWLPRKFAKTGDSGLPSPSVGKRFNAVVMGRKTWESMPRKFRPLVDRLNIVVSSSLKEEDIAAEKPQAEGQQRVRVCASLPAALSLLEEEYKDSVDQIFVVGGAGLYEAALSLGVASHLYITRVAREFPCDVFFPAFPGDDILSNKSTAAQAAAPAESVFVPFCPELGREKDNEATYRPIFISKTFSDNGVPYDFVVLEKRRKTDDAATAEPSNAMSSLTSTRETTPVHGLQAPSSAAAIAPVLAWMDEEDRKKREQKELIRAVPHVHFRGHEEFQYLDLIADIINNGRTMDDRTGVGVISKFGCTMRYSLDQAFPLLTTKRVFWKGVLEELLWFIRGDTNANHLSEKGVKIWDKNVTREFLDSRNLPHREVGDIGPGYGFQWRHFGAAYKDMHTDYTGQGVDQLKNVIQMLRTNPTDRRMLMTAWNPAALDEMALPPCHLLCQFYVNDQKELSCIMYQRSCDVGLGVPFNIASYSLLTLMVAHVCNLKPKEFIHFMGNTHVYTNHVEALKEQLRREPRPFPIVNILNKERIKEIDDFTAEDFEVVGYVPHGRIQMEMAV
# [2] = target: T2, Dihydrofolate reductase (Rattus norvegicus, UniProt Q920D2)
# T2 sequence (Q920D2 whole entry): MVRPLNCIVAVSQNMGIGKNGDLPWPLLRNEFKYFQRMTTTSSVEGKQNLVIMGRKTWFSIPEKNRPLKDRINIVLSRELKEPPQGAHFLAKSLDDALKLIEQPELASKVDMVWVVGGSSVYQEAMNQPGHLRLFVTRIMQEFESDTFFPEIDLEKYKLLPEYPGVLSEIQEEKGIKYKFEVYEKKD
# Description: Inhibition of rat liver dihydrofolate reductase
# [3] = target: T3, Dihydrofolate reductase (Rattus norvegicus) (UniProt Q920D2); test: Percent inhibition against rat liver Dihydrofolate reductase; design: concentration or dose not given beside the values; settings: concentration not given here
# T3 sequence (whole entry): T2 sequence (Q920D2 whole entry)
# [4] = target: T4, Bifunctional dihydrofolate reductase-thymidylate synthase (Toxoplasma gondii) (UniProt Q07422); test: Percent inhibition against Toxoplasma gondii Dihydrofolate reductase; settings: concentration not given here
# T4 sequence (whole entry): T1 sequence (Q07422 whole entry)
# [5] = target: T5, Dihydrofolate reductase (Pneumocystis carinii, UniProt P16184)
# T5 sequence (P16184 whole entry): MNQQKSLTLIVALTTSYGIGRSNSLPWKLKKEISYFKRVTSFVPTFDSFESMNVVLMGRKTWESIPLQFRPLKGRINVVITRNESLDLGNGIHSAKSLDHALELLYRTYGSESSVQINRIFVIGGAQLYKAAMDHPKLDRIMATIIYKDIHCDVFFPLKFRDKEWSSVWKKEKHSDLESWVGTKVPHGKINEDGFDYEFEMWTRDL
# Description: Inhibition of Pneumocystis carinii dihydrofolate reductase
Compound,IC50 [1] [µM],IC50 [2] [µM],inhibition [3] [%],inhibition [4] [%],IC50 [5] [µM]
Nc1nc(N)c2[nH]c(-c3ccc(Cl)c(Cl)c3)nc2n1,6.7,252,,,
COc1ccc(-c2nc3[nH]c(N)nc(N)c-3n2)c2ccccc12,13,13,15,10,13
COc1ccc(-c2nc3nc(N)nc(N)c3[nH]2)c(OC)c1,2.4,0.9,,,14
COc1cc(-c2nc3nc(N)nc(N)c3[nH]2)c([N+](=O)[O-])cc1OC,,25,,,25
Nc1nc(N)c2[nH]c(-c3ccc(-c4ccccc4)cc3)nc2n1,32.9,30.1,,,605
COc1cc(NCc2nc3[nH]c(N)nc(N)c-3n2)cc(OC)c1OC,,,19,5,
COc1ccc(OC)c(-c2nc3nc(N)nc(N)c3[nH]2)c1,1.7,3.5,,,37.4
Nc1nc(N)c2nc(Cc3ccccc3)[nH]c2n1,0.5,1.6,,,
Nc1nc(N)c2nc(C3c4ccccc4-c4ccccc43)[nH]c2n1,,,,,35
COc1cc(-c2nc3nc(N)nc(N)c3[nH]2)cc(OC)c1OC,2.2,13,,,59.4
COc1ccc(OC)c(NCc2nc3c(N)nc(N)nc3[nH]2)c1,49,29,15,,29
Nc1nc(N)c2nc(-c3ccc4ccccc4c3)[nH]c2n1,27,280,,,113
COc1cc(OC)c(-c2nc3nc(N)nc(N)c3[nH]2)c(OC)c1,0.84,1.88,,,31.5
Nc1nc(N)c2nc(-c3ccccc3)[nH]c2n1,28,59.9,,,153
COc1ccc(-c2nc3c(N)nc(N)nc3[nH]2)cc1OC,,52.3,,,12
Nc1nc(N)c2[nH]c(-c3c(Cl)cccc3Cl)nc2n1,11,11,4,6,11
COc1cc(-c2nc3c(N)nc(N)nc3[nH]2)cc(OC)c1O,1,15.3,,,68
Nc1nc(N)c2[nH]c(-c3ccncc3)nc2n1,20,18,0,14,18
COc1ccc(-c2nc3c(N)nc(N)nc3[nH]2)c(OC)c1OC,1.8,3.7,,,17
Nc1nc(N)c2[nH]c(CSc3ccc4ccccc4c3)nc2n1,45,107,,,105
COc1cc(-c2nc3[nH]c(N)nc(N)c-3n2)c([N+](=O)[O-])cc1OC,,,14,,
COc1cc(OC)c(-c2nc3nc(N)nc(N)c3[nH]2)cc1OC,1.5,7,,,22
COc1cc(OC)cc(-c2nc3nc(N)nc(N)c3[nH]2)c1,3,32.4,,,
